Measured values from patent US5451571A (The Cleveland Clinic Foundation, priority 1994, dated 1995).
No end group written: not given here.

Assays:
[1] = tested on: spontaneously hypertensive rats (SHR); test: Blood angiotensin peptides (RIA) after i.v. Ang I in conscious SHR with enzyme inhibitors; type: in vivo, rat; settings: SHR
Description: (§1) All experiments were carried out in strict adherence to the principles sponsored by the American Physiological Society. Male 16-week-old SHR(319±4 gm) and WKY(315±4 gm) controls (Charles River, Wilmington, Mass.) were housed in rooms maintained on a 12 hr light-dark cycle. Animals ate a solid diet of rat chow (Purina, Bedford, Ohio) and had free access to water. Cannulas (PE-50 and PE-10, Clay Adams Becton Dickinson, Parsippany, N.J.) were implanted into a femoral artery and vein using aseptic conditions in rats anesthetized with 1% halothane 24 hours beforehand. The free ends of the cannulas were tunneled under the skin and externalized at the back of the neck.
(§2) Conscious rats were divided into five groups. Group I (n=4 SHR and 4 WKY) received an i.v. injection of 0.9% NaCl. Group II (n=4 SHR and 4 WKY) was given an i.v. injection of enalaprilat (MK-422,2 mg/kg). Group III (n=4 SHR and 4 WKY) was injected with (N-{N-[1-(S)-carboxy-3-phenylpropyl]-(S)-phenylalanyl}-(S)-isoserine) at a dose of 15 mg/kg. […] Group IV (n=4 SHR and 4 WKY) received both MK-422 (2 mg/kg) and SCH 39,370 (15 mg/kg). Group V (n=3 SHR and 3 WKY) were given MK- 422 (2 mg/kg) and Z-prolyl-prolinal (5 mg/kg), a specific inhibitor of prolyl endopeptidase (Friedman TC, Orlowski M, Wilk S: Prolyl Endopeptidase: Inhibition in vivo by N-benzyloxycarbonyl-prolyl-prolinal. J. Neurochem. 42:237-241,1984). Either saline (vehicle) or the enzyme inhibitors were administered 20 minutes before an i.v. injection of 0.2 ml of Ang I (2 nmol) in heparinized saline. Serial samples of arterial blood (0.2 ml) were rapidly collected into ice-chilled tubes containing 5 ml of 80% ethanol/0.1N HCL every 15-30 sec before and after injection of Ang I. The amount of blood removed in each sample was replaced with an equal volume of saline. The dead space (0.08 ml) of the femoral artery catheter was cleared of any remaining saline or blood before obtaining the samples.
(§3) Peptide Extraction and Analyses: Samples were centrifuged at 5,000 g for 20 minutes; the supernatant was stored for 12 hours at -20° C. After a second centrifugation step (10,000 g, 20 min) the supernatant was diluted 1:1 (V:V) with 1% heptaflurobutyric acid (HFBA), stored for 4-6 […] hours at 4° C., and centrifuged again at 15,000 g. This supernatant was further diluted 1:4 with 0.2% HFBA and concentrated on a Sep-Pak Vac Cartridge (Millipore Co., Milford, Mass.) activated beforehand with 3 ml of 60% acetonitrile/0.2% HFBA, 3 ml of 0.1% bovine serum albumin in 0.2% HFBA, and 5 ml of HFBA. After application of the supernatant, the column was washed with 10 ml of 0.2% HFBA. Angiotensin peptides were eluted with 8 ml of 60% acetonitrile/0.2% HFBA. Fractions were evaporated to dryness in a vacuum centrifuge (Savant Instrument Inc., Hicksville, N.Y.) for measurements by radioimmunoassay (RIA). Different aliquots of the samples were assayed to ensure linearity. Peptide recovery for Ang I added to the acid ethanol solution prior to blood sample averaged 85±4%, n=6, SFM): peptide values were not corrected for recovery. Moreover, no in vitro conversion of Ang I into either Ang-(1-7) or Ang II was observed.
(§4) The RIAs employed by the inventors to determine concentrations of Ang I, Ang II, and Ang-(1-7) are described in detail elsewhere. See, Chappell MC, Brosnihan KB, Diz DI, Ferrario CM: Identification of Angiotensin-(1-7) in Rat Brain: Evidence for Differential Processing of Agiotensin Peptides. J. Biol. Chem. […]:16518-16523,1989; and, Kohara K, Brosnihan KB, Chappell MC, Khosla MC, Ferrario CM: Angiotensin-(1-7): A Member of Circulating Angiotensin Peptides. Hypertension 17:131-138, 1991. […] The sensitivity of the Ang I assay (defined as twice the minimum detection level) averaged 5 fmol/tube. The Ang II antibody was produced by the inventors. […] The sensitivity of the Ang II RIA is 0.5 fmol/tube. The antibody of Ang-(1-7) (Core No. 1) was obtained in the inventors laboratory. […]

[2] = molecular target: T1, angiotensin converting enzyme (ACE) (Canis lupus familiaris, UniProt A0A8I3S3I6); test: ACE activity assay (Hip-His-Leu, fluorometric) in dog brain tissue homogenates; type: biochemical; settings: 10 μM MK 422; read-out: inhibition of product released (ACE activity)
T1 construct: The ACE activity was determined by incubating 10 μl of the supernatants; from tissue; host or cells: dog brainstem, spinal cord, choroid plexus and neurohypophysis punches
T1 sequence (A0A8I3S3I6 31-1241): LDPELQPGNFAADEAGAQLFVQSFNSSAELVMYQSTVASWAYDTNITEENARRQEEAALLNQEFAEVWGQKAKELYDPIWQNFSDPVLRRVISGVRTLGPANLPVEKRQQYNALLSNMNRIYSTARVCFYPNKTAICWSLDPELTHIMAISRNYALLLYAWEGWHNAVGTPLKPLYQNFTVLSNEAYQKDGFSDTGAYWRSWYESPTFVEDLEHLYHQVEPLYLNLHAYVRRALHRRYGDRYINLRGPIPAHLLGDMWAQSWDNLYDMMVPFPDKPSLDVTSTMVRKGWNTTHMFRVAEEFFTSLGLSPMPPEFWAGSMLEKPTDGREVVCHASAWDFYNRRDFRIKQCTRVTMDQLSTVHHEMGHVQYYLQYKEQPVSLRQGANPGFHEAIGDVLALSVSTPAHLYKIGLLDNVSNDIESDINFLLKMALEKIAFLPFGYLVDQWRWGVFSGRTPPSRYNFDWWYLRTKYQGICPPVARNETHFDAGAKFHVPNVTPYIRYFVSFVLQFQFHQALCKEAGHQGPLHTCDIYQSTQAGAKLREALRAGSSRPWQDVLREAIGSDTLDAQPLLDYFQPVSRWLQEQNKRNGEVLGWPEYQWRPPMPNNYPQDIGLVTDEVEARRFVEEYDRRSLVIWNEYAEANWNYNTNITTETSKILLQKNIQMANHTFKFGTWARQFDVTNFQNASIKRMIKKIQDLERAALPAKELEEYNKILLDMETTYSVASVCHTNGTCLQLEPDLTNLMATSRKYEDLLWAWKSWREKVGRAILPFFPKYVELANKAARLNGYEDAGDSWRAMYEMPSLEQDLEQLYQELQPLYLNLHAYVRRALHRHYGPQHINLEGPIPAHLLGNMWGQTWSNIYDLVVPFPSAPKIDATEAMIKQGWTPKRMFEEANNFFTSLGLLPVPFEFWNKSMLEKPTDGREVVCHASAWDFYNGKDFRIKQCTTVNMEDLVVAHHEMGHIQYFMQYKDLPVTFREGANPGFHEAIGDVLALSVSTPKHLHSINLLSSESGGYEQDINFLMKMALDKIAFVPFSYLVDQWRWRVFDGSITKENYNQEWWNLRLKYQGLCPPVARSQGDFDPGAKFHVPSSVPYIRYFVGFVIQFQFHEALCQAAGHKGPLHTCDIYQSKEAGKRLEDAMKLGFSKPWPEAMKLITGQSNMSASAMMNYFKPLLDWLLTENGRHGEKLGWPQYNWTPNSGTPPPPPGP
Description: Larger tissue samples were homogenized to a final concentration of 100 mg tissue ml/buffer. The homogenates were centrifuged at 18,000 g for two minutes at 4° C. The ACE activity was determined by incubating 10 μl of the supernatants with 500 μl of an assay solution containing 5 mM Hip-His-Leu (Sigma Chemical, St. Louis, Mo., USA) in 0.4 M sodium borate buffer, pH 8.3, and 0.9 M NaCl for 15 minutes at 37° C.) (Santos R. A. S., Krieger, E. M., Greene, L. J., An Improved Fluorometric Assay of Rat Serum and Plasma Converting Enzyme. […] The product His-Leu was measured fluorometrically (365 nm excitation, 495 emission; Aminco spectrofluorometer, American Instruments, Silver Springs, Md., USA). In punches obtained from the brainstem, neurohypophysis, and choroid plexus, the rate of reaction was linear over a 20-minute period and with the volume of the sample assayed (5-15 ul). Under these conditions, hydrolysis of the product His-Leu (Sigma) was less than 6% as evaluated indirectly fluorometry (Santos, et al. supra). […] Tissue ACE specific activity was expressed as units corresponding to 1 nmol/min/mg protein.

[3] = molecular target: T1, angiotensin converting enzyme (ACE); test: Tissue ACE activity in dog brain six hours after i.v. MK 422; type: in vivo; settings: six hours after MK 422 10 mg/kg i.v.
Description: Experiments were performed on fourteen mongrel dogs weighing 16±2 kg and anesthetized with sodium pentobarbital (30 mg/kg i.v.). […] Ten of the fourteen dogs were given a lethal dose of sodium pentobarbital, and the brain and thoracic portion of the spinal cord (C6-T3) were excised immediately. The brain was removed from four other dogs six hours after a single injection of MK 422 (enalaprilat) at a dose of 10 mg/kg i.v.
Coronal sections (2000 μm thick) from either the brainstem or the spinal cord were laid on a frozen Petri dish placed under the operating microscope. […] Punches from coronal sections of the intermediolateral column of the spinal cord were obtained between C6 and T3. Blocks of tissue were also taken from the area postrema at the obex, the neurohypophysis, and the choroid plexus in the fourth ventricle. Remaining coronal tissue sections were analyzed separately. All tissue samples were kept on dry ice and stored at -70° C. until assayed.
The ACE activity and angiotensin metabolism were measured in tissue samples obtained from five control and four MK 422-treated dogs.
Larger tissue samples were homogenized to a final concentration of 100 mg tissue ml/buffer. The homogenates were centrifuged at 18,000 g for two minutes at 4° C. The ACE activity was determined by incubating 10 μl of the supernatants with 500 μl of an assay solution containing 5 mM Hip-His-Leu (Sigma Chemical, St. Louis, Mo., USA) in 0.4 M sodium borate buffer, pH 8.3, and 0.9 M NaCl for 15 minutes at 37° C.) (Santos R. A. S., Krieger, E. M., Greene, L. J., An Improved Fluorometric Assay of Rat Serum and Plasma Converting Enzyme. […] The product His-Leu was measured fluorometrically (365 nm excitation, 495 emission; Aminco spectrofluorometer, American Instruments, Silver Springs, Md., USA). […] Under these conditions, hydrolysis of the product His-Leu (Sigma) was less than 6% as evaluated indirectly fluorometry (Santos, et al. supra). […] Tissue ACE specific activity was expressed as units corresponding to 1 nmol/min/mg protein.

Wistar Kyoto (WKY) rats = test: Blood angiotensin peptides (RIA) after i.v. Ang I in conscious WKY with enzyme inhibitors; type: in vivo, rat
Description: as §1, §2, §3, §4

[4] = tested on: brain punch homogenate from the A2 region; type: biochemical, dog; settings: pH 7.5
From the text: To study the metabolism of angiotensin in brain punch homogenates, ^125 I-labelled Ang I and Ang II (New England Nuclear, Boston, Mass., USA) were purified initially to remove the peptidase inhibitor trasylol by reverse phase high performance liquid chromatography (HPLC) using a Nova-Pak C column (Waters Associates, Milford, Mass., USA). Peptides were eluted isocratically with 33.6% acetonitrile (Burdick and Jackson, American Scientific Products, Columbus, Ohio, USA) in 0.13% heptafluorbutyric acid (HFBA; Sequenal grade, Pierce, Rockford, Ill., USA) at a flow rate of 1 ml/min. The effluent (0.25 ml/fraction) was collected in tubes precoated with bovine serum albumin (BSA; Pentex, Miles Scientific, Naperville, Ill., USA). After evaporation in a vacuum centrifuge (Savant, Farmingdale, N.Y., USA), the purified peptides were redissolved in water.
The metabolism of ^125 I-Ang I and ^125 I-Ang II was studied by incubating 10 μl of brain homogenates with 190 μl of an assay solution containing 50 pM labelled standards in 20 mM Tris HCl buffer, pH 7.5, and 0.01% BSA for 2 to 15 minutes at 37° C. The reactions were stopped by the addition of 100 μl of 32% acetonitrile containing 0.13% HFBA, followed by centrifugation at 18,000 g for 2 minutes. […]

| Molecule | increase of peak Ang-(1-7) over values found in control rats ([1]; MK-422 2 mg/kg) | Ang II formation / production ([1]; after Ang I 2 nmol i.v.) | inhibition at 10 µM [2] | ACE activity in homogenates from the choroid plexus [3] | ACE activity in other regions of the brainstem [3] | ACE activity in the A2 region (between -2 and +4 mm of the obex) ([3]; untreated controls 22.5±1.6 U) | increase of peak Ang-(1-7) over values found in control rats (Wistar Kyoto (WKY) rats; MK-422 2 mg/kg) | Ang II formation / production (Wistar Kyoto (WKY) rats; after Ang I 2 nmol i.v.) | major / primary metabolic product of the labelled peptide [4] |
| --- | --- | --- | --- | --- | --- | --- | --- | --- | --- |
| C[C@H](N[C@@H](CCc1ccccc1)C(=O)O)C(=O)N1CCC[C@H]1C(=O)O [MK 422, enalaprilat] | three-fold | eliminated | 98% | 14.9±0.6 U | did not change | 16.7±1.7 U | two-fold | eliminated |  |
| ^125 I-Ang II: 125I-labelled Ang II used as substrate (DRVYIHPF; also: 125I label; UniProt P01019 25-32, looked up) |  |  |  |  |  |  |  |  | Ang-(1-7) |
